Columns and labels:
[1] = cited from earlier work
[2] = tested on: genes involved in the pathophysiology of AAA; assay: Drug inhibition effect on differentially expressed genes, overall; assay type: in vivo, ApoE−/− mice; conditions: sum of heat map grades over 25 genes; ApoE−/− + Ang II group scored 55
Experimental: (§1) ApoE−/− mice used in this study were divided into different pretreatment groups: 1) Fluvastatin-MF; 2) Doxycycline-MD; 3) Irbesartan-MI; 4) Telmisartan-MT; 5) Control (water) and fed medicated chow or medicated drinking water 1 week prior to pump implantation. AngII (1000 ng·kg^−1 of body weight·min^−1) was infused subcutaneously via Alzet mini-osmotic pumps for 28 days. All mice were maintained on the medicated chow (MI & MT) or medicated drinking water (MF & MD) treatments which were delivered daily for a total of 28 days following pump implantation.
(§2) In order to determine the effect of the various treatments on the progressive enlargement of the experimental AAAs the mice were followed with high frequency trans-abdominal ultrasound. Maximum aortic diameter was measured and recorded prior to pump implantation and then at 3, 7, 14, 21, and 28 days. All mice were sacrificed 28 days after pump implantation. Aortae were harvested and subjected to either histological analysis (Elastic Masson trichome, MAC2, CD31 and TUNEL staining) and analysis of mural gene expression. Plasma drug concentrations of experimental compounds were quantified on the day of sacrifice using high performance liquid chromatography (HPLC).
(§3) Total RNA was extracted from homogenized aortas using the Qiazol lysis reagent and RNeasy Lipid Tissue Mini kit. DNAse treatment was included in the procedure. RNA concentration was determined utilizing the Quant iT RNA assay kit. Complimentary deoxyribonucleic acid (cDNA) was synthesized from 1 μg RNA using High reverse cDNA transcription kit. Briefly the reaction tubes containing RNA, reverse transcriptase, buffer, RNAse inhibitor, and nuclease free water were incubated at 25° C. for 10 minutes to allow annealing. Reverse transcription was performed at 37° C. for 120 min, followed by a 5 sec incubation at 85° C. to inactivate the reverse transcriptase enzyme. The cDNA samples were cooled at 4° C. and stored at −80° C. until further use.
(§4) Real time PCR was performed using a 384-well Taqman low density array (TLDA) card. Each sample specific PCR mix contained 50 ng of total RNA converted to cDNA. The PCR reaction for Taqman assays contained 50 μl Master Mix (Taqman Universal PCR Master Mix,) and 50 ul of cDNA and RNAase free water. Assays were performed to include appropriate controls (no template control). The RT-PCR protocol included an initial step of 50° C. (2 minutes) […], denaturation by a hot start at 95° C. for 10 min, followed by 40 cycles of a 2 step program (denaturation at 95° C. for 15 secs for primer annealing/extension at 60° C. for 1 min). Fluorescence data was collected at 60° C. Fluorescence was quantified with ABI PRISM 7900HT Sequence Detection System. To verify amplification of a specific target cDNA, data generated was analyzed using SDS 2.2.3 software (Sequence Detection System Software, Applied Biosystems). For all amplification plots, the baseline data were set with the automatic CT function available with SDS 2.2.3 calculating the optimal baseline range and threshold value by using the AutoCT algorithm. According to the manufacturer's instruction, a CT value of ≧39 corresponds to nonspecific amplification marking the limits of detection. For endogenous control GAPDH was normalized to B2M. For relative quantification (RQ), pooled ApoE−/− control was used as the calibrator (with expression equal to 1).

[3] = tested on: Cathepsin B; assay: Aortic mural gene expression, RT-PCR (TLDA); assay type: in vivo, ApoE−/− mice; conditions: fold change over ApoE−/− control; aorta, 28 days Ang II infusion
Experimental: as §1, §2, §3, §4

[4] = tested on: MMP-12; assay: Aortic mural gene expression, RT-PCR (TLDA); assay type: in vivo, ApoE−/− mice; conditions: fold change over ApoE−/− control; aorta, 28 days Ang II infusion
Experimental: as §1, §2, §3, §4

[5] = tested on: MMP-8; assay: Aortic mural gene expression, RT-PCR (TLDA); assay type: in vivo, ApoE−/− mice; conditions: fold change over ApoE−/− control; aorta, 28 days Ang II infusion
Experimental: as §1, §2, §3, §4

[6] = tested on: CXCR4; assay: Aortic mural gene expression, RT-PCR (TLDA); assay type: in vivo, ApoE−/− mice; conditions: fold change over ApoE−/− control; aorta, 28 days Ang II infusion
Experimental: as §1, §2, §3, §4

[7] = tested on: Runx3; assay: Aortic mural gene expression, RT-PCR (TLDA); assay type: in vivo, ApoE−/− mice; conditions: fold change over ApoE−/− control; aorta, 28 days Ang II infusion
Experimental: as §1, §2, §3, §4

[8] = tested on: ITGB2; assay: Aortic mural gene expression, RT-PCR (TLDA); assay type: in vivo, ApoE−/− mice; conditions: fold change over ApoE−/− control; aorta, 28 days Ang II infusion
Experimental: as §1, §2, §3, §4

[9] = tested on: LOX; assay: Aortic mural gene expression, RT-PCR (TLDA); assay type: in vivo, ApoE−/− mice; conditions: fold change over ApoE−/− control; aorta, 28 days Ang II infusion
Experimental: as §1, §2, §3, §4

[10] = tested on: Cybb; assay: Aortic mural gene expression, RT-PCR (TLDA); assay type: in vivo, ApoE−/− mice; conditions: fold change over ApoE−/− control; aorta, 28 days Ang II infusion
Experimental: as §1, §2, §3, §4

[11] = tested on: TNF-α; assay: Aortic mural gene expression, RT-PCR (TLDA); assay type: in vivo, ApoE−/− mice; conditions: fold change over ApoE−/− control; aorta, 28 days Ang II infusion
Experimental: as §1, §2, §3, §4

[12] = tested on: TIMP2; assay: Aortic mural gene expression, RT-PCR (TLDA); assay type: in vivo, ApoE−/− mice; conditions: fold change over ApoE−/− control; aorta, 28 days Ang II infusion
Experimental: as §1, §2, §3, §4

[13] = tested on: IL-7; assay: Aortic mural gene expression, RT-PCR (TLDA); assay type: in vivo, ApoE−/− mice; conditions: fold change over ApoE−/− control; aorta, 28 days Ang II infusion
Experimental: as §1, §2, §3, §4

[14] = tested on: CCR2; assay: Aortic mural gene expression, RT-PCR (TLDA); assay type: in vivo, ApoE−/− mice; conditions: fold change over ApoE−/− control; aorta, 28 days Ang II infusion
Experimental: as §1, §2, §3, §4

[15] = tested on: Osteopontin; assay: Aortic mural gene expression, RT-PCR (TLDA); assay type: in vivo, ApoE−/− mice; conditions: fold change over ApoE−/− control; aorta, 28 days Ang II infusion
Experimental: as §1, §2, §3, §4

[16] = tested on: Rac2; assay: Aortic mural gene expression, RT-PCR (TLDA); assay type: in vivo, ApoE−/− mice; conditions: fold change over ApoE−/− control; aorta, 28 days Ang II infusion
Experimental: as §1, §2, §3, §4

[17] = tested on: Vav1; assay: Aortic mural gene expression, RT-PCR (TLDA); assay type: in vivo, ApoE−/− mice; conditions: fold change over ApoE−/− control; aorta, 28 days Ang II infusion
Experimental: as §1, §2, §3, §4

[18] = tested on: MAPK8; assay: Aortic mural gene expression, RT-PCR (TLDA); assay type: in vivo, ApoE−/− mice; conditions: fold change over ApoE−/− control; aorta, 28 days Ang II infusion
Experimental: as §1, §2, §3, §4

[19] = tested on: CCL2; assay: Aortic mural gene expression, RT-PCR (TLDA); assay type: in vivo, ApoE−/− mice; conditions: fold change over ApoE−/− control; aorta, 28 days Ang II infusion
Experimental: as §1, §2, §3, §4

[20] = tested on: Cathepsin S; assay: Aortic mural gene expression, RT-PCR (TLDA); assay type: in vivo, ApoE−/− mice; conditions: fold change over ApoE−/− control; aorta, 28 days Ang II infusion
Experimental: as §1, §2, §3, §4

[21] = tested on: HMOX 1; assay: Aortic mural gene expression, RT-PCR (TLDA); assay type: in vivo, ApoE−/− mice; conditions: fold change over ApoE−/− control; aorta, 28 days Ang II infusion
Experimental: as §1, §2, §3, §4

[22] = tested on: ITGAL; assay: Aortic mural gene expression, RT-PCR (TLDA); assay type: in vivo, ApoE−/− mice; conditions: fold change over ApoE−/− control; aorta, 28 days Ang II infusion
Experimental: as §1, §2, §3, §4

[23] = tested on: CCR5; assay: Aortic mural gene expression, RT-PCR (TLDA); assay type: in vivo, ApoE−/− mice; conditions: fold change over ApoE−/− control; aorta, 28 days Ang II infusion
Experimental: as §1, §2, §3, §4

[24] = tested on: Fibronectin -1; assay: Aortic mural gene expression, RT-PCR (TLDA); assay type: in vivo, ApoE−/− mice; conditions: fold change over ApoE−/− control; aorta, 28 days Ang II infusion
Experimental: as §1, §2, §3, §4

[25] = tested on: Tgfβ1; assay: Aortic mural gene expression, RT-PCR (TLDA); assay type: in vivo, ApoE−/− mice; conditions: fold change over ApoE−/− control; aorta, 28 days Ang II infusion
Experimental: as §1, §2, §3, §4

[26] = tested on: NFKb1; assay: Aortic mural gene expression, RT-PCR (TLDA); assay type: in vivo, ApoE−/− mice; conditions: fold change over ApoE−/− control; aorta, 28 days Ang II infusion
Experimental: (§5) Total RNA was extracted from homogenized aortas using the Qiazol lysis reagent and RNeasy Lipid Tissue Mini kit. DNAse treatment was included in the procedure. RNA concentration was determined utilizing the Quant iT RNA assay kit. Complimentary deoxyribonucleic acid (cDNA) was synthesized from 1 μg RNA using High reverse cDNA transcription kit. Briefly the reaction tubes containing RNA, reverse transcriptase, buffer, RNAse inhibitor, and nuclease free water were incubated at 25° C. for 10 minutes to allow annealing. […] The cDNA samples were cooled at 4° C. and stored at −80° C. until further use.
(§6) Real time PCR was performed using a 384-well Taqman low density array (TLDA) card. Each sample specific PCR mix contained 50 ng of total RNA converted to cDNA. The PCR reaction for Taqman assays contained 50 μl Master Mix (Taqman Universal PCR Master Mix,) and 50 ul of cDNA and RNAase free water. Assays were performed to include appropriate controls (no template control). The RT-PCR protocol included an initial step of 50° C. […] Fluorescence data was collected at 60° C. Fluorescence was quantified with ABI PRISM 7900HT Sequence Detection System. To verify amplification of a specific target cDNA, data generated was analyzed using SDS 2.2.3 software (Sequence Detection System Software, Applied Biosystems). […] For relative quantification (RQ), pooled ApoE−/− control was used as the calibrator (with expression equal to 1).

[27] = tested on: CSF1; assay: Aortic mural gene expression, RT-PCR (TLDA); assay type: in vivo, ApoE−/− mice; conditions: fold change over ApoE−/− control; aorta, 28 days Ang II infusion
Experimental: as §5, §6

[28] = molecular target: ACE (Homo sapiens, UniProt P12821); conditions: in vitro; cited from earlier work
Chain of ACE (P12821 30-1306, species assumed): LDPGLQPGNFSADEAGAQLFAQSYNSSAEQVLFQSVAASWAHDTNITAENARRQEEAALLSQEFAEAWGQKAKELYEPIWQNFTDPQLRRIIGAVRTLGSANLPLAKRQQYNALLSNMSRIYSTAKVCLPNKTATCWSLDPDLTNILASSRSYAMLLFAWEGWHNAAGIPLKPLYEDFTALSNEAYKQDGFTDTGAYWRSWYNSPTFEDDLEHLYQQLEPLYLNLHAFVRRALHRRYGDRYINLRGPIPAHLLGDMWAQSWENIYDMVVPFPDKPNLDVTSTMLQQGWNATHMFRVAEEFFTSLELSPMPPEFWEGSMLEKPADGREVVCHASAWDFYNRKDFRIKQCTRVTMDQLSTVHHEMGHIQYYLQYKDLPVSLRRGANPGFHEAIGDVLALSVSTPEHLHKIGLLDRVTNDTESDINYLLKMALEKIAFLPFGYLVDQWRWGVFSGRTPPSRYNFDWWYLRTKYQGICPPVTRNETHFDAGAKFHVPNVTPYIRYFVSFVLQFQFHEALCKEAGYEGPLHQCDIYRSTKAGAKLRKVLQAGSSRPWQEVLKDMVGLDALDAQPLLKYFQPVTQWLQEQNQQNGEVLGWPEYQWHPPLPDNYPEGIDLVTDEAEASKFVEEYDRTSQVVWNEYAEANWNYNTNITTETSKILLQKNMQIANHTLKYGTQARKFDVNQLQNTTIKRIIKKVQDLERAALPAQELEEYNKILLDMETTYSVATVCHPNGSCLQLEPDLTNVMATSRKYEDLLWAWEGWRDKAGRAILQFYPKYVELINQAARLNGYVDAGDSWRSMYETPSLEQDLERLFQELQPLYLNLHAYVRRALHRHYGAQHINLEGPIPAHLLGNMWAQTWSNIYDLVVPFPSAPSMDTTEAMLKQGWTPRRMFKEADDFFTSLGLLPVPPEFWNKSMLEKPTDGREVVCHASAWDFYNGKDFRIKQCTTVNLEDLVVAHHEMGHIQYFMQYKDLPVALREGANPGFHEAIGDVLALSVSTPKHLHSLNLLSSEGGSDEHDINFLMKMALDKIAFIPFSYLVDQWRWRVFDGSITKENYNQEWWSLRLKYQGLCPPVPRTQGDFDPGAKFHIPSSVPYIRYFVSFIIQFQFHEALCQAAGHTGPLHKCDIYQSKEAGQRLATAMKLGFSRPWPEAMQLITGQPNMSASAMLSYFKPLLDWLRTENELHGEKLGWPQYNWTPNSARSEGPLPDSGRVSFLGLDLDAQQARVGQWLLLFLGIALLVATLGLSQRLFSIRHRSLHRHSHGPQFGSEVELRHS

[29] = in vivo; cited from earlier work

Question: For `O=C(O)c1cccnc1` [Niacin, nicotinic acid], which Water solubility [1] is on record?
Answer: water-soluble

Question: With `C[C@H]1c2cccc(O)c2C(=O)C2=C(O)[C@]3(O)C(=O)C(C(N)=O)=C(O)[C@@H](N(C)C)[C@@H]3[C@@H](O)[C@@H]21` [Doxycycline] as the compound, how does the “Total Score” value [2] read?
Answer: 53

Question: And the “Cathepsin B expression” value [3]?
Answer: ++ (1.51 to 3 = ++)

Question: What about the MMP-12 expression [4] of the same compound?
Answer: ++++ (>10.1 = ++++)

Question: What about the MMP-8 expression [5] of the same compound?
Answer: ++++ (>10.1 = ++++)

Question: And the CXCR4 expression [6]?
Answer: ++++ (>10.1 = ++++)

Question: What about the Runx3 expression [7] of the same compound?
Answer: +++ (3.1 to 10 = +++)

Question: What about the ITGB2 expression [8] of the same compound?
Answer: ++ (1.51 to 3 = ++)

Question: And the LOX expression [9]?
Answer: − (0 to 1 = −)

Question: And the Cybb expression [10]?
Answer: +++ (3.1 to 10 = +++)

Question: And the TNF-α expression [11]?
Answer: ++ (1.51 to 3 = ++)

Question: What about the TIMP2 expression [12] of the same compound?
Answer: − (0 to 1 = −)

Question: What about the IL-7 expression [13] of the same compound?
Answer: − (0 to 1 = −)

Question: And the CCR2 expression [14]?
Answer: +++ (3.1 to 10 = +++)

Question: And the Osteopontin expression [15]?
Answer: ++++ (>10.1 = ++++)

Question: What about the Rac2 expression [16] of the same compound?
Answer: +++ (3.1 to 10 = +++)

Question: And the Vav1 expression [17]?
Answer: ++ (1.51 to 3 = ++)

Question: And the MAPK8 expression [18]?
Answer: − (0 to 1 = −)

Question: What about the CCL2 expression [19] of the same compound?
Answer: + (1.1 to 1.5 = +)

Question: What about the “Cathepsin S expression” value [20] of the same compound?
Answer: +++ (3.1 to 10 = +++)

Question: What about the “HMOX 1 expression” value [21] of the same compound?
Answer: ++++ (>10.1 = ++++)

Question: What about the ITGAL expression [22] of the same compound?
Answer: +++ (3.1 to 10 = +++)

Question: What about the CCR5 expression [23] of the same compound?
Answer: +++ (3.1 to 10 = +++)

Question: What about the “Fibronectin -1 expression” value [24] of the same compound?
Answer: − (0 to 1 = −)

Question: What about the Tgfβ1 expression [25] of the same compound?
Answer: +++ (3.1 to 10 = +++)

Question: And the NFKb1 expression [26]?
Answer: − (0 to 1 = −)

Question: What about the CSF1 expression [27] of the same compound?
Answer: − (0 to 1 = −)

Question: For `CCOC(=O)[C@H](CCc1ccccc1)N[C@@H](C)C(=O)N1CCC[C@H]1C(=O)O` [enalapril], which “ACE inhibitor potency (in words)” value [28] is on record?
Answer: not highly active

Question: For `CCOC(=O)[C@H](CCc1ccccc1)N[C@@H](C)C(=O)N1CC2(C[C@H]1C(=O)O)SCCS2` [spirapril], which Route of clearance/elimination [29] is on record?
Answer: balanced elimination by the liver and kidneys
